The target of experiment [1] is T1, HCV polymerase (NS5B) type 1b (Hepatitis C virus genotype 1b, UniProt P26663).
T1 construct: a region encoding NS5B (J Virol 1991 March, 65(3), 1105-13, 544 amino acids after deletion of 47 amino acids on the C-terminal); 6xHis (C); made in house; host or cells: Escherichia coli
Nature of the experiment: Assay of enzyme (HCV polymerase) inhibitory activity, type 1b enzyme. Format: biochemical, HCV BK strain (type 1b). The following applies: HCV polymerase inhibitory activity (IC50), 1b, type 1b enzyme 0.5 μg/ml, 25° C., 60 min. The procedure, abridged: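 His-tagged, C-terminally truncated NS5B (BK strain, 1b; 0.5 μg/ml) incubated with compound 60 min at 25 °C on 3′UTR-derived substrate RNA (5 μg/ml), 50 μM ATP/GTP/CTP, 2 μM UTP plus [3H]UTP, pH 7.5. Acid-precipitated RNA counted; IC50 from radioactivity with and without compound.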

Experiment [2] addresses T2, HCV polymerase (NS5B) type 1a (Hepatitis C virus genotype 1a, UniProt P26664).
T2 construct: made in house; host or cells: Escherichia coli (by the 'similar method' of the 1b enzyme)
Nature of the experiment: Assay of enzyme (HCV polymerase) inhibitory activity, type 1a enzyme. Format: biochemical, HCV type 1a (cloned from the blood of patients). The following applies: HCV polymerase inhibitory activity (IC50), 1a, type 1a enzyme 1.5 μg/ml, 25° C., 60 min. The procedure, abridged:
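His-tagged NS5B, C-terminal 47 residues deleted, type 1a at 1.5 μg/ml, with 5 μg/ml HCV 3′UTR substrate RNA, 50 μM ATP/GTP/CTP, 2 μM UTP plus [3H]UTP, pH 7.5 Tris, 5 mM MgCl2; 60 min at 25° C. TCA-precipitated RNA counted by scintillation; IC50 from radioactivity with vs. without compound.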

Where a name gives a salt, the structure may show the parent alone. Bounds are passed on as bounds.

For the molecule `CC(C)c1ccc(S(=O)(=O)N2CCN(C(=O)C(C)(C)O)CC2C(=O)NCc2ccc(C(F)(F)F)cc2)cc1` (stereo not shown) [Example 56, 4-(2-hydroxy-2-methyl-propionyl)-1-(4-isopropyl-benzenesulfonyl)-piperazine-2-carboxylic acid 4-trifluoromethyl-benzylamide], the IC50 in experiment [1] and in experiment [2] was greater than 1 µM each time.

For `COCC(=O)N1CCN(S(=O)(=O)c2ccc(C(C)C)cc2)C(C(=O)NCc2ccc(C(F)(F)F)cc2)C1` (stereo not shown) [Example 57, 1-(4-isopropyl-benzenesulfonyl)-4-(2-methoxy-acetyl)-piperazine-2-carboxylic acid 4-trifluoromethyl-benzylamide], the IC50 in experiment [1] and in experiment [2] was greater than 1 µM in each case.

For the molecule `CC(C)c1ccc(S(=O)(=O)N2CCN(C(=O)CCO)CC2C(=O)NCc2ccc(C(F)(F)F)cc2)cc1` (stereo not shown) [Example 58, 4-(3-hydroxy-propionyl)-1-(4-isopropyl-benzenesulfonyl)-piperazine-2-carboxylic acid 4-trifluoromethyl-benzylamide], the IC50 in experiment [1] and in experiment [2] was greater than 1 µM in each case.

`CC(C)c1ccc(S(=O)(=O)N2CCN(C(=O)N(C)C)CC2C(=O)NCc2ccc(C(F)(F)F)cc2)cc1` (stereo not shown) [Example 59, 4-(4-isopropyl-benzenesulfonyl)-piperazine-1,3-dicarboxylic acid 1-dimethylamide 3-(4-trifluoromethyl-benzylamide)]: the half-inhibitory concentration (IC50) in experiment [1] and in experiment [2] was greater than 1 µM each time.

For `CCc1ccc(S(=O)(=O)N2CCN(C(C)=O)CC2C(=O)NCc2ccc(C(F)(F)F)cc2)cc1` (stereo not shown) [Example 60, 4-acetyl-1-(4-ethyl-benzenesulfonyl)-piperazine-2-carboxylic acid 4-trifluoromethyl-benzylamide], the IC50 in experiment [1] and in experiment [2] was greater than 1 µM throughout.

Consider `CC(=O)N1CCN(S(=O)(=O)c2ccc(I)cc2)C(C(=O)NCc2ccc(C(F)(F)F)cc2)C1` (stereo not shown) [Example 61, 4-acetyl-1-(4-iodo-benzenesulfonyl)-piperazine-2-carboxylic acid 4-trifluoromethyl-benzylamide], for which the IC50 in experiment [1] and in experiment [2] was greater than 1 µM in each case.

Turning to `CC(=O)N1CCN(S(=O)(=O)c2ccc(-n3cc(Cl)cn3)s2)C(C(=O)NCc2ccc(C(F)(F)F)cc2)C1` (stereo not shown) [Example 62, 4-acetyl-1-[5-(4-chloro-pyrazol-1-yl)-thiophene-2-sulfonyl]-piperazine-2-carboxylic acid 4-trifluoromethyl-benzylamide], the IC50 in experiment [1] and in experiment [2] was greater than 1 µM throughout.

As for `CC(C)c1ccc(S(=O)(=O)N2CCN(C=O)CC2C(=O)NCc2ccc(C(F)(F)F)cc2)cc1` (stereo not shown) [Example 63, 4-formyl-1-(4-isopropyl-benzenesulfonyl)-piperazine-2-carboxylic acid 4-trifluoromethyl-benzylamide], the IC50 in experiment [1] and in experiment [2] was greater than 1 µM each time.

Take `CC(=O)N1CCN(S(=O)(=O)c2ccc(C)cc2)C(C(=O)NCc2ccc(C(F)(F)F)cc2)C1` (stereo not shown) [Example 64, 4-acetyl-1-(toluene-4-sulfonyl)-piperazine-2-carboxylic acid 4-trifluoromethyl-benzylamide]: the IC50 in experiment [1] and in experiment [2] was greater than 1 µM throughout.

Turning to `CC(=O)N1CCN(S(=O)(=O)c2ccc(OC(F)(F)F)cc2)C(C(=O)NCc2ccc(C(F)(F)F)cc2)C1` (stereo not shown) [Example 65, 4-acetyl-1-(4-trifluoromethoxy-benzenesulfonyl)-piperazine-2-carboxylic acid 4-trifluoromethyl-benzylamide], the IC50 in experiment [1] and in experiment [2] was greater than 1 µM each time.

Take `CC(=O)N1CCN(S(=O)(=O)c2ccc(Oc3cccnc3)cc2)C(C(=O)NCc2ccc(C(F)(F)F)cc2)C1` (stereo not shown) [Example 66, 4-acetyl-1-[4-(pyridin-3-yloxy)-benzenesulfonyl]-piperazine-2-carboxylic acid 4-trifluoromethyl-benzylamide hydrochloride]: the IC50 in experiment [1] and in experiment [2] was greater than 1 µM each time.

Turning to `CC(=O)N1CCN(S(=O)(=O)c2ccc(C(C)C)cc2)C(C(=O)NCc2ccccc2F)C1` (stereo not shown) [Example 67, 4-acetyl-1-(4-isopropyl-benzenesulfonyl)-piperazine-2-carboxylic acid 2-fluoro-benzylamide], the IC50 in experiment [1] and in experiment [2] was greater than 1 µM each time.

With `CC(=O)N1CCN(S(=O)(=O)c2ccc(C(C)C)cc2)C(C(=O)NCc2ccc(C(C)(C)C)cc2)C1` (stereo not shown) [Example 68, 4-acetyl-1-(4-isopropyl-benzenesulfonyl)-piperazine-2-carboxylic acid 4-tert-butyl-benzylamide], the IC50 in experiment [1] and in experiment [2] was 0.1 to 1 µM each time.

As to `CC(=O)N1CCN(S(=O)(=O)c2cnc(Cl)c(Br)c2)C(C(=O)NCc2ccc(C(F)(F)F)cc2)C1` (stereo not shown) [Example 69, 4-acetyl-1-(5-bromo-6-chloro-pyridine-3-sulfonyl)-piperazine-2-carboxylic acid 4-trifluoromethyl-benzylamide hydrochloride], the IC50 in experiment [1] and in experiment [2] was greater than 1 µM throughout.

As for `CC(=O)N1CCN(S(=O)(=O)c2ccc(N3CCOCC3)nc2)C(C(=O)NCc2ccc(C(F)(F)F)cc2)C1` (stereo not shown) [Example 70, 4-acetyl-1-(6-morpholin-4-yl-pyridine-3-sulfonyl)-piperazine-2-carboxylic acid 4-trifluoromethyl-benzylamide hydrochloride], the IC50 in experiment [1] and in experiment [2] was greater than 1 µM throughout.

Take `COc1cccc(S(=O)(=O)N2CCN(C(C)=O)CC2C(=O)NCc2ccc(C(F)(F)F)cc2)c1` (stereo not shown) [Example 71, 4-acetyl-1-(3-methoxy-benzenesulfonyl)-piperazine-2-carboxylic acid 4-trifluoromethyl-benzylamide]: the IC50 in experiment [1] and in experiment [2] was greater than 1 µM in each case.

For the molecule `CCCc1ccc(S(=O)(=O)N2CCN(C(C)=O)CC2C(=O)NCc2ccc(C(F)(F)F)cc2)cc1` (stereo not shown) [Example 72, 4-acetyl-1-(4-propyl-benzenesulfonyl)-piperazine-2-carboxylic acid 4-trifluoromethyl-benzylamide], the IC50 (usually the concentration at which inhibition is half-maximal) in experiment [1] was 0.1 to 1 µM; in experiment [2], greater than 1 µM.

Turning to `CC(=O)N1CCN(S(=O)(=O)c2ccc(-c3ccccc3)cc2)C(C(=O)NCc2ccc(C(F)(F)F)cc2)C1` (stereo not shown) [Example 73, 4-acetyl-1-(biphenyl-4-sulfonyl)-piperazine-2-carboxylic acid 4-trifluoromethyl-benzylamide], the IC50 in experiment [1] and in experiment [2] was greater than 1 µM each time.

Regarding `CC(=O)N1CCN(S(=O)(=O)c2cc3ccccc3s2)C(C(=O)NCc2ccc(C(F)(F)F)cc2)C1` (stereo not shown) [Example 74, 4-acetyl-1-(benzo[b]thiophene-2-sulfonyl)-piperazine-2-carboxylic acid 4-trifluoromethyl-benzylamide], the IC50 in experiment [1] and in experiment [2] was greater than 1 µM throughout.

In the case of `CC(=O)N1CCN(S(=O)(=O)c2ccc(C(C)C)s2)C(C(=O)NCc2ccc(C(F)(F)F)cc2)C1` (stereo not shown) [Example 75, 4-acetyl-1-(5-isopropyl-thiophene-2-sulfonyl)-piperazine-2-carboxylic acid 4-trifluoromethyl-benzylamide], the IC50 in experiment [1] and in experiment [2] was greater than 1 µM throughout.

In the case of `COC(=O)c1ccc(CNC(=O)C2CN(C(C)=O)CCN2S(=O)(=O)c2ccc(C(C)C)cc2)cc1` (stereo not shown) [Example 76, 4-({[4-acetyl-1-(4-isopropyl-benzenesulfonyl)-piperazine-2-carbonyl]-amino}-methyl)-benzoic acid methyl ester], the IC50 in experiment [1] and in experiment [2] was greater than 1 µM each time.

Turning to `CC(=O)N1CCN(S(=O)(=O)c2ccc(C(C)C)cc2)C(C(=O)NCc2ccc([N+](=O)[O-])cc2)C1` (stereo not shown) [Example 77, 4-acetyl-1-(4-isopropyl-benzenesulfonyl)-piperazine-2-carboxylic acid 4-nitro-benzylamide], the IC50 in experiment [1] and in experiment [2] was greater than 1 µM in each case.

For `CC(=O)N1CCN(S(=O)(=O)c2ccc(C(C)C)cc2)C(C(=O)NCc2cccc(F)c2)C1` (stereo not shown) [Example 78, 4-acetyl-1-(4-isopropyl-benzenesulfonyl)-piperazine-2-carboxylic acid 3-fluoro-benzylamide], the IC50 in experiment [1] and in experiment [2] was greater than 1 µM each time.

As to `CC(=O)N1CCN(S(=O)(=O)c2ccc(C(C)C)cc2)C(C(=O)NCCc2c[nH]c3ccccc23)C1` (stereo not shown) [Example 79, 4-acetyl-1-(4-isopropyl-benzenesulfonyl)-piperazine-2-carboxylic acid [2-(1H-indol-3-yl)-ethyl]-amide], the IC50 in experiment [1] and in experiment [2] was greater than 1 µM each time.

As to `CC(=O)N1CCN(S(=O)(=O)c2ccc(C(C)C)cc2)C(C(=O)NCc2ccc(N3CCOCC3)cc2)C1` (stereo not shown) [Example 80, 4-acetyl-1-(4-isopropyl-benzenesulfonyl)-piperazine-2-carboxylic acid 4-morpholin-4-yl-benzylamide], the IC50 in experiment [1] and in experiment [2] was greater than 1 µM in each case.

As to `CC(=O)N1CCN(S(=O)(=O)c2ccc(C(C)C)cc2)C(C(=O)NCc2ccc(N3CCN(C)CC3)cc2)C1` (stereo not shown) [Example 81, 4-acetyl-1-(4-isopropyl-benzenesulfonyl)-piperazine-2-carboxylic acid 4-(4-methyl-piperazin-1-yl)-benzylamide], the IC50 in experiment [1] and in experiment [2] was greater than 1 µM throughout.

The record behind these values is patent US8017612B2, “Piperazine compound and use thereof as a HCV polymerase inhibitor” (priority 2006, dated 2011).
